In ChEMBL document CHEMBL5463729, “Data for DCP probe BAY 1753011” (2023):

Key:
[1] = target: ALK tyrosine kinase receptor (Homo sapiens) (UniProt Q9UM73); experiment: Inhibition of ALK(h) at 10.0 µM in the Eurofins Kinase panel; conditions: Compound concentration 10.0 uM
[2] = target: Serine/threonine-protein kinase A-Raf (Homo sapiens) (UniProt P10398); experiment: Inhibition of A-Raf(h) at 10.0 µM in the Eurofins Kinase panel; conditions: Compound concentration 10.0 uM
[3] = target: Tyrosine-protein kinase receptor UFO (Homo sapiens) (UniProt P30530); experiment: Inhibition of Axl(h) at 10.0 µM in the Eurofins Kinase panel; conditions: Compound concentration 10.0 uM
[4] = target: CDK9/cyclin T1 (Homo sapiens) (UniProt O60563+P50750); experiment: Inhibition of CDK9/cyclin T1(h) at 10.0 µM in the Eurofins Kinase panel; format: protein-complex assay; conditions: Compound concentration 10.0 uM
[5] = target: Casein kinase I isoform gamma-3 (Homo sapiens) (UniProt Q9Y6M4); experiment: Inhibition of CK1gamma3(h) at 10.0 µM in the Eurofins Kinase panel; conditions: Compound concentration 10.0 uM
[6] = target: Death-associated protein kinase 2 (Homo sapiens) (UniProt Q9UIK4); experiment: Inhibition of DAPK2(h) at 10.0 µM in the Eurofins Kinase panel; conditions: Compound concentration 10.0 uM
[7] = target: Serine/threonine-protein kinase DCLK2 (Homo sapiens) (UniProt Q8N568); experiment: Inhibition of DCAMKL2(h) at 10.0 µM in the Eurofins Kinase panel; conditions: Compound concentration 10.0 uM
[8] = target: Ephrin type-A receptor 5 (Homo sapiens) (UniProt P54756); experiment: Inhibition of EphA5(h) at 10.0 µM in the Eurofins Kinase panel; conditions: Compound concentration 10.0 uM
[9] = target: Ephrin type-B receptor 2 (Homo sapiens) (UniProt P29323); experiment: Inhibition of EphB2(h) at 10.0 µM in the Eurofins Kinase panel; conditions: Compound concentration 10.0 uM
[10] = target: Macrophage colony-stimulating factor 1 receptor (Homo sapiens) (UniProt P07333); experiment: Inhibition of Fms(h) at 10.0 µM in the Eurofins Kinase panel; conditions: Compound concentration 10.0 uM
[11] = target: Serine/threonine-protein kinase STK11 (Homo sapiens) (UniProt Q15831); experiment: Inhibition of LKB1(h) at 10.0 µM in the Eurofins Kinase panel; conditions: Compound concentration 10.0 uM
[12] = target: Serine/threonine-protein kinase MARK1 (Homo sapiens) (UniProt Q9P0L2); experiment: Inhibition of MARK1(h) at 10.0 µM in the Eurofins Kinase panel; conditions: Compound concentration 10.0 uM
[13] = target: Dual specificity mitogen-activated protein kinase kinase 3 (Homo sapiens) (UniProt P46734); experiment: Inhibition of MKK3(h) at 10.0 µM in the Eurofins Kinase panel; conditions: Compound concentration 10.0 uM
[14] = target: Myosin-IIIb (Homo sapiens) (UniProt Q8WXR4); experiment: Inhibition of MYO3B(h) at 10.0 µM in the Eurofins Kinase panel; conditions: Compound concentration 10.0 uM
[15] = target: Serine/threonine-protein kinase NIM1 (Homo sapiens) (UniProt Q8IY84); experiment: Inhibition of NIM1(h) at 10.0 µM in the Eurofins Kinase panel; conditions: Compound concentration 10.0 uM
[16] = target: Serine/threonine-protein kinase PAK 2 (Homo sapiens) (UniProt Q13177); experiment: Inhibition of PAK2(h) at 10.0 µM in the Eurofins Kinase panel; conditions: Compound concentration 10.0 uM
[17] = target: Serine/threonine-protein kinase pim-1 (Homo sapiens) (UniProt P11309); experiment: Inhibition of Pim-1(h) at 10.0 µM in the Eurofins Kinase panel; conditions: Compound concentration 10.0 uM
[18] = target: Serine/threonine-protein kinase Sgk3 (Homo sapiens) (UniProt Q96BR1); experiment: Inhibition of SGK3(h) at 10.0 µM in the Eurofins Kinase panel; conditions: Compound concentration 10.0 uM
[19] = target: Tyrosine-protein kinase Srms (Homo sapiens) (UniProt Q9H3Y6); experiment: Inhibition of SRMS(h) at 10.0 µM in the Eurofins Kinase panel; conditions: Compound concentration 10.0 uM
[20] = target: Dual specificity protein kinase TTK (Homo sapiens) (UniProt P33981); experiment: Inhibition of TTK(h) at 10.0 µM in the Eurofins Kinase panel; conditions: Compound concentration 10.0 uM
[21] = target: Phosphatidylinositol 3-kinase C2 domain-containing subunit gamma (Homo sapiens) (UniProt O75747); experiment: Inhibition of PI3KC2g(h) at 10.0 µM in the Eurofins Kinase panel; conditions: Compound concentration 10.0 uM
[22] = target: Sodium-dependent serotonin transporter (Homo sapiens) (UniProt P31645); conditions: Compound concentration 10.0 uM
[23] = target: T1, Muscarinic acetylcholine receptor M5 (Homo sapiens) (UniProt P08912); conditions: Compound concentration 10.0 uM
T1 sequence (whole entry): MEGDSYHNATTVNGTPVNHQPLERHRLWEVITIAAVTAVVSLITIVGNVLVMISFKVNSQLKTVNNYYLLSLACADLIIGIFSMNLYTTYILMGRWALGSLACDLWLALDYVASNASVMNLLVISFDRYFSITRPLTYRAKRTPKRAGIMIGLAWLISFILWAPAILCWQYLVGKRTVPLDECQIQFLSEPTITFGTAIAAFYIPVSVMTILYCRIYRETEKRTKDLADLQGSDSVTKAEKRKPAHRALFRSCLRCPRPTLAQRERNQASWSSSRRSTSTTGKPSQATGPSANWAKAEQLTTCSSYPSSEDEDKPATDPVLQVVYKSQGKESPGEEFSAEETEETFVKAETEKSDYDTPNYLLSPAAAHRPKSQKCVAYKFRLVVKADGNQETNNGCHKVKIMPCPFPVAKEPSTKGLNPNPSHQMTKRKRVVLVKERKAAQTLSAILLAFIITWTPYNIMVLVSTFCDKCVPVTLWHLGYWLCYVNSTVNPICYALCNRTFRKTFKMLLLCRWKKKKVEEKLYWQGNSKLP

[24] = target: D(2) dopamine receptor (Homo sapiens) (UniProt P14416); conditions: Compound concentration 10.0 uM
[25] = target: Glutamate NMDA receptor (Rattus norvegicus) (UniProt P35439+Q00959+Q00960+Q00961+Q62645+Q8VHN2+Q9R1M7); conditions: Compound concentration 10.0 uM
[26] = target: T2, Alpha-2B adrenergic receptor (Homo sapiens) (UniProt P18089); conditions: Compound concentration 10.0 uM
T2 sequence (whole entry): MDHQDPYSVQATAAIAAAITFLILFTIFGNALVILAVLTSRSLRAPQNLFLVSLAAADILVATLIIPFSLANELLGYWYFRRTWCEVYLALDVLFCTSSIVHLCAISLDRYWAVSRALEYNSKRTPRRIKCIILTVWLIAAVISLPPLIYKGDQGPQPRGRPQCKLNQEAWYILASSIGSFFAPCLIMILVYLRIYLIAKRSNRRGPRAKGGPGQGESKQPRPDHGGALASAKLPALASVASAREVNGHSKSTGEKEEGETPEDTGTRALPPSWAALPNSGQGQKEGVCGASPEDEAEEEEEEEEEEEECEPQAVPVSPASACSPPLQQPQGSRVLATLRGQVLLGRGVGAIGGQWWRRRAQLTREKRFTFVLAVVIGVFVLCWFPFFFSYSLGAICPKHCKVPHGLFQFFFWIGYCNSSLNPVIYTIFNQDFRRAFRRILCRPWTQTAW

[27] = target: Insulin receptor (Homo sapiens) (UniProt P06213); conditions: Rattus norvegicus; Compound concentration 10.0 uM
[28] = target: 5-hydroxytryptamine receptor 2C (Homo sapiens) (UniProt P28335); conditions: Compound concentration 10.0 uM

Sequence of Sodium-dependent serotonin transporter (Homo sapiens) (P31645 whole entry, looked up): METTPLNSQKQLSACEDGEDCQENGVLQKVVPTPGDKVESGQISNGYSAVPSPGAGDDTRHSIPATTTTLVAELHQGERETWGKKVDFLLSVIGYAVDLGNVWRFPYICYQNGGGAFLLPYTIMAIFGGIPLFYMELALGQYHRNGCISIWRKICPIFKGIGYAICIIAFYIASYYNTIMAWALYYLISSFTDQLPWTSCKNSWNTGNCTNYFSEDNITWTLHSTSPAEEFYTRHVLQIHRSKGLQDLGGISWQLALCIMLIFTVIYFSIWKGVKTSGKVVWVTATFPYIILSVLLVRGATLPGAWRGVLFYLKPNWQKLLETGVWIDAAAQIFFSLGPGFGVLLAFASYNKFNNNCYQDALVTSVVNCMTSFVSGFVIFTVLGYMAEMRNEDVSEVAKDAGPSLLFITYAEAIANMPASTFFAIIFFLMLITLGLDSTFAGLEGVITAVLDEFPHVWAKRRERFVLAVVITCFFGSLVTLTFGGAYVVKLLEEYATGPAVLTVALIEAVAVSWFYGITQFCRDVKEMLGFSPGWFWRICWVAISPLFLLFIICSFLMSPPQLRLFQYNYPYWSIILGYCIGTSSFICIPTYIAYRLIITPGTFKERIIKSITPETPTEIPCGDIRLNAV
Sequence of Myosin-IIIb (Homo sapiens) (Q8WXR4 whole entry): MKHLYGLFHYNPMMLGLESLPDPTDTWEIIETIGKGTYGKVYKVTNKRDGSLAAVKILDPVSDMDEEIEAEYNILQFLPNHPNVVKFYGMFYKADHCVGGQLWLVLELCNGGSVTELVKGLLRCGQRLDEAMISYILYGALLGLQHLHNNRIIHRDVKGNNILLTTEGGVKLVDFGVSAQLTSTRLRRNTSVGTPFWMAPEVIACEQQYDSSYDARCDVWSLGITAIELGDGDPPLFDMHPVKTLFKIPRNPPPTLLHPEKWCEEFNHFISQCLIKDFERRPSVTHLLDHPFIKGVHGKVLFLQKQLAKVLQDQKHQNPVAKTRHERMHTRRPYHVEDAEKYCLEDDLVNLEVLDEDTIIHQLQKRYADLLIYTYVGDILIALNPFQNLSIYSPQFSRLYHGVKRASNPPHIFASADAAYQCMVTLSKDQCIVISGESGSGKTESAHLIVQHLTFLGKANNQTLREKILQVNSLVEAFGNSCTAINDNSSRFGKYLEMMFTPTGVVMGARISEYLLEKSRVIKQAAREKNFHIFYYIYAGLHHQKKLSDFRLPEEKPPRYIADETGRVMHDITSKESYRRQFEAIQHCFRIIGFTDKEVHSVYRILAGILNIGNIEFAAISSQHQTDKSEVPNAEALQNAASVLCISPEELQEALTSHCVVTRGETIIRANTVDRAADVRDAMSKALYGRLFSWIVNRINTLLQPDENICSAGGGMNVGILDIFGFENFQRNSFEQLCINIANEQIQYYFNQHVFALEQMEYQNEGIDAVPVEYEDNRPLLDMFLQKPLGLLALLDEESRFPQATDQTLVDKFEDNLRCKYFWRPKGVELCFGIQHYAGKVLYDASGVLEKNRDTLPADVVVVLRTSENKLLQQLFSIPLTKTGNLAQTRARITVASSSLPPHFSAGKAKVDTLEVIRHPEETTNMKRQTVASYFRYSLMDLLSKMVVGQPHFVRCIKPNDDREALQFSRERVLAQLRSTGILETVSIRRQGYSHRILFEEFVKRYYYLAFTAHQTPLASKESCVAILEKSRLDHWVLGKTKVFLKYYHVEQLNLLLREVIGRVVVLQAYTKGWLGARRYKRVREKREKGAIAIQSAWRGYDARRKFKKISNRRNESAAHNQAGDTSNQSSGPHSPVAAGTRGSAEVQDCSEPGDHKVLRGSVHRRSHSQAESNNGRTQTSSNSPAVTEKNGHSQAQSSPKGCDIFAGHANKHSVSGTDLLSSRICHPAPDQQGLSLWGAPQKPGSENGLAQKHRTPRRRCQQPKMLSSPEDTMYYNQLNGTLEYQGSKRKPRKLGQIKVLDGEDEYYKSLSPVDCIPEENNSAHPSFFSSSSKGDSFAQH
Sequence of Macrophage colony-stimulating factor 1 receptor (Homo sapiens) (P07333 whole entry): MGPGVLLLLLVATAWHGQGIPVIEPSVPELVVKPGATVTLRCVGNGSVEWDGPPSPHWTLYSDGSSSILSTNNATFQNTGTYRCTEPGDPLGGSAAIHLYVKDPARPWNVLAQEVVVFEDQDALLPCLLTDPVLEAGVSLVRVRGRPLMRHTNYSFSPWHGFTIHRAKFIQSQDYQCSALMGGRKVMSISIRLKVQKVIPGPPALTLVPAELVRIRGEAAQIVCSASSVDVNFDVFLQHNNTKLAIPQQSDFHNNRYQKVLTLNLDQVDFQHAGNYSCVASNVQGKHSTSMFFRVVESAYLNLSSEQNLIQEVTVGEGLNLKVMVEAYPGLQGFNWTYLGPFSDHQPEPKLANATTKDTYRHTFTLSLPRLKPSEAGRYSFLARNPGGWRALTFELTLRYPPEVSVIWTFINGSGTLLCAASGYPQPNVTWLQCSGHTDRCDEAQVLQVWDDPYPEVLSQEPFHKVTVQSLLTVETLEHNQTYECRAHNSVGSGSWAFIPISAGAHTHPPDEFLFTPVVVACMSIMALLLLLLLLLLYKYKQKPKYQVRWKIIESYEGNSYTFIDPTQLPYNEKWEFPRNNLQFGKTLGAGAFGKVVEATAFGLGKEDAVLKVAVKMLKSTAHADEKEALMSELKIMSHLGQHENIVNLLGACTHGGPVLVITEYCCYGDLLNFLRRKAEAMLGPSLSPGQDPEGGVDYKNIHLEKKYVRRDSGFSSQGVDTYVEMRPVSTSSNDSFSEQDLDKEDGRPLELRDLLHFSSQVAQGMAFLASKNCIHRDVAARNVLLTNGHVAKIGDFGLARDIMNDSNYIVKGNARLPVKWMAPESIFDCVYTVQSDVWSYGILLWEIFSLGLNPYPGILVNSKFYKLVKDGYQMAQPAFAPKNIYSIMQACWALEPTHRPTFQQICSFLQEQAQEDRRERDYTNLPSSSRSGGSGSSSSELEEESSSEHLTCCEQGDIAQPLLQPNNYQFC
Sequence of Serine/threonine-protein kinase A-Raf (Homo sapiens) (P10398 whole entry): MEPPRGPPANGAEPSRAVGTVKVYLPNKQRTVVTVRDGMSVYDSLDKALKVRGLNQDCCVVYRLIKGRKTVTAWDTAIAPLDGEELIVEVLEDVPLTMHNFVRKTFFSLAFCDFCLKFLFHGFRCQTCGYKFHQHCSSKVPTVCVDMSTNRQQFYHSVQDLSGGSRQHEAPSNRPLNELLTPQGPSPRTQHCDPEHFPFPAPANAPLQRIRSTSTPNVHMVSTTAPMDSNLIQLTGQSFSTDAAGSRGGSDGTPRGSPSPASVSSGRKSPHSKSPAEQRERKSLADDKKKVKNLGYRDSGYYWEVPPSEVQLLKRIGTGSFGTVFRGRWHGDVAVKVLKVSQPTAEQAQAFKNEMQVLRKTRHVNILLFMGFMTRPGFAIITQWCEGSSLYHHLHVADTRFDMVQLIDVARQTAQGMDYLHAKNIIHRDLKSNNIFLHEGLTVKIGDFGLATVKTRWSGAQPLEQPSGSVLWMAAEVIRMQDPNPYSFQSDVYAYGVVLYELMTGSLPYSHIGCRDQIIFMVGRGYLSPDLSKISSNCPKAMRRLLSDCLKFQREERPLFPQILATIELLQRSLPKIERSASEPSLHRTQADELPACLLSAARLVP
Sequence of Serine/threonine-protein kinase NIM1 (Homo sapiens) (Q8IY84 whole entry): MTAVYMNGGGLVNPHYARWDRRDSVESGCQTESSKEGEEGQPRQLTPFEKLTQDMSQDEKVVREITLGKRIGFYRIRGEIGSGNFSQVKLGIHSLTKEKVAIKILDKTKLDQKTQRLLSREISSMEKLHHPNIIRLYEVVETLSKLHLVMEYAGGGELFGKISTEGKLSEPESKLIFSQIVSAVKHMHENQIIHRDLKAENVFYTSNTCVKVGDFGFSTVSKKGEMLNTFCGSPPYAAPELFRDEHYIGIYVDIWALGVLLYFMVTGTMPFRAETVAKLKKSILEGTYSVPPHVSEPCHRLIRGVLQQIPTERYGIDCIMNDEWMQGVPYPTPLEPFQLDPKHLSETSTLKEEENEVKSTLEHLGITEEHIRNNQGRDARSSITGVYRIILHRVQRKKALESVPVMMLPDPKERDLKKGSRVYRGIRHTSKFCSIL
Sequence of Serine/threonine-protein kinase pim-1 (Homo sapiens) (P11309 whole entry, looked up): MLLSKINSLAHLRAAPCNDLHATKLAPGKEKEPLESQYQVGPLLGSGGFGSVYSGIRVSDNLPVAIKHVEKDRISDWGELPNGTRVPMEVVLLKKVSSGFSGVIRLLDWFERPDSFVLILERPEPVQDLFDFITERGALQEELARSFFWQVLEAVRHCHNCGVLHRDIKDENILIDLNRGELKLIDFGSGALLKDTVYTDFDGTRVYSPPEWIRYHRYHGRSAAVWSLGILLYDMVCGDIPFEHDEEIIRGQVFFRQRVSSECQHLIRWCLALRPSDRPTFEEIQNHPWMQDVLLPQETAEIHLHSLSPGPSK
Sequence of Serine/threonine-protein kinase DCLK2 (Homo sapiens) (Q8N568 whole entry): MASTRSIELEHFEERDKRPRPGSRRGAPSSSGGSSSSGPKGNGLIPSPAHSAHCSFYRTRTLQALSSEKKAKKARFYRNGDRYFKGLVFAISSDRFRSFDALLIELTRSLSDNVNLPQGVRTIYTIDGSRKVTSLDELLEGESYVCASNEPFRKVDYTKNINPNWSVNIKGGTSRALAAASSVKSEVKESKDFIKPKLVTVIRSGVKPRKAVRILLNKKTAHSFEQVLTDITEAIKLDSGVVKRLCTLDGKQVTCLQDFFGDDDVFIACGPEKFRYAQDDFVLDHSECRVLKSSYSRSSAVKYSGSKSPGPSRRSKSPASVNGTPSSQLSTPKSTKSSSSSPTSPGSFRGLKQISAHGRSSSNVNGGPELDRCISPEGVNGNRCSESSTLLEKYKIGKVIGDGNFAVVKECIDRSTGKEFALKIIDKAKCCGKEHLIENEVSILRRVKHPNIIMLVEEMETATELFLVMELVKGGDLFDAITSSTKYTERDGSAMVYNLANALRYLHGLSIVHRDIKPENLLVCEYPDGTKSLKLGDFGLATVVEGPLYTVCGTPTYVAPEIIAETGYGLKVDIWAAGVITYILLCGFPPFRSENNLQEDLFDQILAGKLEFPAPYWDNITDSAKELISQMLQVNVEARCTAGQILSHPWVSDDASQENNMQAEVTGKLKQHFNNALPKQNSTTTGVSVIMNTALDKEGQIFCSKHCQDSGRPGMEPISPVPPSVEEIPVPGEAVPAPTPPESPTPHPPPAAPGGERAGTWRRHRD

Row | SMILES | inhibition [1] [%] | inhibition [2] [%] | inhibition [3] [%] | inhibition [4] [%] | inhibition [5] [%] | inhibition [6] [%] | inhibition [7] [%] | inhibition [8] [%] | inhibition [9] [%] | inhibition [10] [%] | inhibition [11] [%] | inhibition [12] [%] | inhibition [13] [%] | inhibition [14] [%] | inhibition [15] [%] | inhibition [16] [%] | inhibition [17] [%] | inhibition [18] [%] | inhibition [19] [%] | inhibition [20] [%] | also measured
1 | O=c1n(Cc2cncn2-c2cccc(Cl)c2)nc(-c2ccc(Cl)cc2)n1C[C@H](O)C(F)(F)F | -8.94 | 2.57 | 3.23 | -1.79 | -8.47 | 11.7 | -8.53 | -7.8 | -4.8 | 5.33 | 1.85 | 2.63 | -0.4 | 6.86 | 3.02 | 1.99 | 6.13 | -5.09 | 4.78 | -7.11 | inhibition [21]: 6.58%; inhibition [22]: 14.1%; inhibition [23]: -5.11%; inhibition [24]: -3%; inhibition [25]: -8%; inhibition [26]: 2%; inhibition [27]: 1%; inhibition [28]: -1%
2 | C[C@H](O)c1nc(Cn2nc(-c3ccc(Cl)cc3)n(C[C@H](O)C(F)(F)F)c2=O)nn1-c1cccc(Cl)c1 [PECAVAPTAN] | -3.75 | 1.05 | 2.01 | -3.05 | -8.75 | -2.55 | -9.34 | -3.72 | 6.86 | -2.47 | -1.51 | 0.06 | -0.58 | 2.49 | 5.79 | 3.11 | 0.99 | -6.13 | 7.11 | 2.07 | inhibition [21]: 6.41%; inhibition [22]: 9.13%; inhibition [23]: -1.8%; inhibition [24]: 14%; inhibition [25]: 2%; inhibition [26]: 8%; inhibition [27]: -1%; inhibition [28]: 20%
